The assay relates to Doxorubicin aptamer (DNA, aptamer) ACCATCTGTGTAAGGGGTAAGGGGTGGT
Description: electrochemical aptamer-based sensor, square-wave voltammetry (KDM), Hill fit. The following applies: 37 °C; in serum; apparent; immobilised aptamer; 8 devices.

Molecules are shown by their SMILES.

Consider `COc1cccc2c1C(=O)c1c(O)c3c(c(O)c1C2=O)C[C@@](O)(C(=O)CO)C[C@@H]3O[C@H]1C[C@H](N)[C@H](O)[C@H](C)O1`, for which the Kd came out at 5 µM.

For the origin of these results see PMC11838736 (2025).
